Columns and labels:
[1] = Surface tension measurement, Nouy ring method; assay type: physicochemical; conditions: 20 ml aliquot, Kruss Model K 10 ST; liquid carrier tetrafluoropropanol, no coating moiety
Method: Samples of coating solution (Examples 8, 9, 10, and 11) were prepared by blending in a vessel a measured volume of a liquid carrier (tetrafluoropropanol) and a fluorocarbon surface tension-reducing agent (1,1,1,3,3-pentafluoropropane, HFC245fa) to give the Vol. % compositions indicated in Table 3, below.
Surface tension was measured using the Nouy ring method and a Kruss Instrument Model K 10 ST.
In a typical determination, a 20 ml aliquot of the liquid to be tested was placed in the instrument and the surface tension was measured by the published procedure described above. Measurements were carried out for neat tetrafluropropanol (a liquid carrier, Table 3, Comparative Example #3), neat 1,1,1,3,3-pentafluropropane (HFC245fa, as a fluorocarbon surface tension-reducing agent, Table 3, Example # 11), and coating solution formulations (sans a coating moiety) comprising mixtures of tetrafluropropanol with 25 Vol. %, 50 Vol. %, and 75 Vol. % 1,1,1,3,3-pentafluropropane (Table 3, Examples 8, 9 and 10 respectively).

[2] = assay type: physicochemical
Method: Coating solvent was prepared by blending in a vessel a measured volume of a liquid carrier (tetrafluoropropanol) and as a surface tension-reducing agent 1,1,1,3,3-pentafluoropropane (HFC245fa) to give a solvent having the constituent volumetric ratios shown in Table I, below.
Solubility was determined by adding dye powder slowly to a weighed 100 ml aliquot of the coating solvent in a vessel. The solvent was stirred to dissolve the dye. When no more dye would dissolve, the dye addition was stopped and the solvent reweighed to determine the amount of dye that had been dissolved in the solvent.

Row | Compound | Surface Tension [1] [mN/m] | Dye A Solubility [2] [g/100 ml] | Dye B Solubility [2] [g/100 ml]
1 | FC(F)CC(F)(F)F [Example # 11, 1,1,1,3,3-pentafluropropane] | 18 |  | 
2 | Tetrafluoropropanol [compound 1] |  | 10.7 | 11.3

Source: patent publication US20040063843A1, “Coating solutions” (Honeywell International, Inc., priority 2002, published 2004)
